In one assay the test system is S. epidermidis. As to the kind of experiment: Broth microdilution MIC of lecithin/chitosan particle compositions. It is filed as cell-based. The note with it: for MIC: Staphylococcus epidermidis. The method, then: (§1) Initially, to determine basic characteristics, each active component was separately mixed, generally under agitated conditions, with water, and each was miscible with water. Each, after being mixed with water, was tested in a broth microdilution assay, against a variety of bacteria using amounts of the each of the lauric acid derivatives, ranging from about 0.0009 wt. % to about 8 wt. %. The bacteria included Escherichia coli, and Staphylococcus aureus (including MRSA strains). The minimum inhibitory concentration (MIC) needed to prevent growth of the target bacteria was evaluated based on a method published by Clinical Laboratory Standards Institute (CLSI), broth microdilution method M-07 (M07). […] Each of the samples containing one of the lauric acid derivatives was compared with a positive control, decanoic acid.
(§2) For TABLES 1 to 3, compositions were generally prepared as described above, and as further outlined in this paragraph. For these examples, the active component, as a lauric acid derivative or lauric acid, was suspended in an organic solvent, chloroform, and then mixed with water, under robust agitation. The amount of water to the amount of chloroform was at least about 2:1, and could be as high as 10:1. Chloroform was then evaporated (e.g., under vacuum using a freeze dryer). After removal of the chloroform, a 2.2% lecithin solution in an acetate buffer (e.g., 98 mM acetic acid and 2 mM sodium acetate) was prepared and added, so the final amount of the active component was about 1 part active component mixture and about 9 parts of the 2.2% lecithin solution. Of course, it is noted that other ranges to achieve final amount of the active component as described above (e.g., active component mixture and lecithin solution) may also be utilized. Cholesterol could also be optionally added. The mixture of lecithin and the active component was mixed and sonicated, and then a solution of about 1.5% chitosan was added. Thereafter, the entirety of the mixture containing the lecithin and the active component was further blended, in which a final ratio was about 1 part active component to about 9 parts of the 2.2% lecithin solution to about 10 parts of the 1.5% chitosan solution. The pH was then varied, to a pH of 5, or a pH of 7, or a pH of 9. In some mixtures having a pH of 7, a chemical agent imparting a positive charge to the chitosan was included in a form of glycol chitosan. In these tests, the chemical agent used was glycol. In these examples, the amount of chemical agent, glycol was about one molecule glycol moiety to one molecule chitosan sacharide unit; higher amounts of glycol moieties are also acceptable, while lower amounts of glycol moieties were often found to decrease overall inhibitory activity associated with a composition when formed and tested in vitro. It is noted that negatively charged chitosan containing particles were prepared. […] After mixing, the mixtures could each be filtered through a […] filter. In some tests, the mixtures were sonicated before filtering. Sonication produced small particles. In some studies, particles were freeze dried as a powder (generally, after mixing, sonicating and filtering).
(§3) The positive controls were prepared and evaluated in a similar manner. All prepared samples were tested using a broth microdilution test.
(In general: Broth dilution looks for growth in wells or tubes with falling amounts of substance.)

In assay [1] the test system is gram-positive organisms, Streptococcus group A and Streptococcus beta-hemolytic non-A, and S. aureus, as well as Candida. The note with it: background reports; free acid or ester used as such, in vitro/topical; cited from earlier work.
A further assay has as its system E. coli. As to the kind of experiment: Broth microdilution MIC of lecithin/chitosan particle compositions. It counts as cell-based. How it is done: as §1, §2, §3
Setting [2] is: Table 3, lecithin/chitosan particle composition, prep. mixture pH 5 or pH 7, maximum concentration tested 10 mg/ml.
The mark [3] stands for this setting: Table 3, lecithin/chitosan particle composition, prep. mixture pH 5 or pH 7, maximum concentration tested 10 mg/ml, read-out: MIC (mg/ml) S. epidermidis (chitosan prep. mixture at pH 5 or at pH 7).

Like-named read-outs stand apart in the source and are kept apart here.

For the molecule `CCCCCCCCCCCC(=O)OCC(O)CO` (racemic) [1-lauroyl-rac-glycerol], the MIC in the assay on S. epidermidis (read-out: MIC (mg/ml) S. epidermidis (chitosan prep. mixture at pH 5 or at pH 7)) was found to be 10 mg/mL.
Regarding `CCCCCCCCCC(=O)CC(=O)NC1CCCCC1=O` (stereo not drawn) [3-oxo-N-(2-oxocyclohexyl) dodecanamide], the “MIC (mg/ml) S. epidermidis (chitosan prep. mixture at pH 5 or at pH 7)” value with S. epidermidis (setting [2]) is listed as 10 mg/ml.
On to `CCCCCCCCCCCC(=O)Oc1ccc([N+](=O)[O-])cc1` [4-nitrophenyl dodecanoate], for which the MIC in the assay on S. epidermidis (setting [3]) turned out to be 10 mg/mL.
With `O=C(O)CCCCCCCCCCCNc1ccc([N+](=O)[O-])c2nonc12` [12-(7-nitrobenzofurazan-4-ylamino) dodecanoic acid], in the assay on S. epidermidis (setting [3]), the MIC amounted to 10 mg/mL.
With `CCCCCCCCCCCC(=O)OCc1ccccc1` [benzyl laurate], the MIC in the assay on S. epidermidis (setting [3]) was 10 mg/mL.
Take `CCCCCCCCCCCC(=O)OCCCC` [butyl laurate]: the MIC in the assay on S. epidermidis (setting [3]) is 10 mg/mL.
In the case of `CCCCCCCCCCCC(=O)OCC` [ethyl laurate], the “Inhibitory activity reported in the literature” value (from here on “Inhibitory activity reported”) in assay [1] was “inactive”.
`CCCCCCCCCCCC(=O)OCCCCCC` [hexyl laurate]: the MIC with S. epidermidis (setting [3]) was determined as 10 mg/mL.
Take `CCCCCCCCCCCC(=O)OCCC(C)C` [isoamyl laurate]: in the assay on S. epidermidis (setting [3]), the MIC turned out to be 10 mg/mL.
Turning to `CCCCCCCCCCCC(=O)OC(C)C` [isopropyl laurate], the MIC with S. epidermidis (setting [3]) was found to be 10 mg/mL.
Consider `CCCCCCCCCCCC(=O)O` [lauric acid, dodecanoic acid], for which, in assay [1], the “Inhibitory activity reported” value is listed as “weak inhibitory activity”.
On to `CCCCCCCCCCCC(=O)OC` [methyl laurate], for which, in assay [1], the “Inhibitory activity reported” value is reported as “ineffective”.
Turning to `CCCCCCCCCCCC(=O)OCC(O)CO` (stereo not drawn) [monolaurin], in the assay on S. epidermidis (setting [2]), the “MIC (mg/ml) S. epidermidis (chitosan prep. mixture at pH 5 or at pH 7)” value stood at 10 mg/ml.
For `CCCCCCCC(=O)O` [octanoic acid, reference compound], in the assay on E. coli (lecithin/chitosan particle composition, prep. mixture pH 5 or pH 7, maximum concentration tested 10 mg/ml), the “MIC (mg/ml) for E. coli (chitosan prep. mixture was at pH 5 or at pH 7)” value was “— (no inhibitory activity)”. Moreover, in the assay with E. coli (particulated compositions manipulated to impart positivity (glycol chitosan at neutral pH, or prepared at pH 9)), the “Inhibitory activity against representative Gram-negative bacteria” value was “not found to exhibit inhibitory activity”. Also, the MIC in the assay with S. epidermidis (setting [3]) worked out at 10 mg/mL; in the assay with S. epidermidis (lecithin/chitosan particle composition, prep. mixture pH 5 or pH 7, maximum concentration tested 10 mg/ml, read-out: MIC (mg/ml) for S. epidermidis (chitosan prep. mixture was at pH 5 or at pH 7)), 10 mg/mL.
Regarding `CCCCCCCCCCCC(=O)OCCCCC` [pentyl laurate], in the assay with S. epidermidis (setting [3]), the MIC was 10 mg/mL.

The record behind these values is patent US11351134B2, “Small molecule agents, compositions, and formulations, for internal use, displaying inhibitory activity against gram-positive and/or gram-negative organisms” (NATUREZA, INC., priority 2017, dated 2022).
